Results taken from ChEMBL document CHEMBL4184250, “Structure-activity studies of a macrocyclic peptide inhibitor of histone lysine demethylase 4A” (Bioorg Med Chem, 2018).
Where a SMILES comes first, the peptide text is derived from it. Bridges are numbered along the chain shown (N, C = ends). [ ]: non-standard residue; d: D form. NMeI = CC[C@H](C)[C@H](NC)C(=O)O; NMeC = CN[C@@H](CS)C(=O)O

Columns and labels:
[1] = Drug uptake in human MCF7 cells assessed as cell area stained at 10 uM after 3 hrs by Hoechst 33342 staining based confocal microscopic analysis; type: ADME; settings: mcf7, 3 h
[2] = biological target: T1, Lysine-specific demethylase 4C (Homo sapiens, UniProt Q9H3R0); test: Inhibition of KDM4C (unknown origin) expressed in Escherichia coli using biotinylated peptide as substrate pretreated for 15 mins followed by substrate addition by Alphascreen assay
T1 sequence (Q9H3R0 whole entry): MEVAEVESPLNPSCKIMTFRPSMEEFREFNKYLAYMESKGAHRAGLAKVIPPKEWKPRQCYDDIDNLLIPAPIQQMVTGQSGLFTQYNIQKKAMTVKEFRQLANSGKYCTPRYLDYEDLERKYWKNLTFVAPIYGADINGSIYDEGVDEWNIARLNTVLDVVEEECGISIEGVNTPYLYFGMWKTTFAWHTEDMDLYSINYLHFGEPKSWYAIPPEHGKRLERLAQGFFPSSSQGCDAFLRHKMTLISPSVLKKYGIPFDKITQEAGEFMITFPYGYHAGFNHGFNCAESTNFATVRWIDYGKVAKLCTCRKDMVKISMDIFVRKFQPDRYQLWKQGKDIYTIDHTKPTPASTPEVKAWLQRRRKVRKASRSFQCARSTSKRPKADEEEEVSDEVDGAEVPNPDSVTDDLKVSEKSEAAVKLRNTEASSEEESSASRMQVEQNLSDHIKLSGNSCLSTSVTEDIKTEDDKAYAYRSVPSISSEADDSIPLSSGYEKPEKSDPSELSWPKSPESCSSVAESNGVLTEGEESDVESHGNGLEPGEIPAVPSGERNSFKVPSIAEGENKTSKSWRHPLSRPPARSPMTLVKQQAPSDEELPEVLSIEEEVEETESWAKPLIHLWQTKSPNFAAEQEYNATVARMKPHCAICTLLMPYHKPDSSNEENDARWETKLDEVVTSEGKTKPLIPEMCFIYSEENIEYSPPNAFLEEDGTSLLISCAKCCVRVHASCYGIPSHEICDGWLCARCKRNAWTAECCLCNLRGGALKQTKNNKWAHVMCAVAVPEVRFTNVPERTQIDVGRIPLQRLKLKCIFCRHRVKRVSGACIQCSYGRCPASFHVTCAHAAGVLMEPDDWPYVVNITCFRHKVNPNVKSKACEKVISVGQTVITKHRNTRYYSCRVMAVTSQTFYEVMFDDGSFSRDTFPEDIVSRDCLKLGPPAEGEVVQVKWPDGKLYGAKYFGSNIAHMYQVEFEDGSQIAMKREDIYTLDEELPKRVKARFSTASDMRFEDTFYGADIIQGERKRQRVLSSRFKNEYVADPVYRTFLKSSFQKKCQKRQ

[3] = biological target: T2, Lysine-specific demethylase 4A (Homo sapiens, UniProt O75164); test: Binding affinity to biotinylated-KDM4A (unknown origin) at 300 nM by bio-layer interferometric method; settings: read-out: Kd(app)
T2 sequence (O75164 whole entry): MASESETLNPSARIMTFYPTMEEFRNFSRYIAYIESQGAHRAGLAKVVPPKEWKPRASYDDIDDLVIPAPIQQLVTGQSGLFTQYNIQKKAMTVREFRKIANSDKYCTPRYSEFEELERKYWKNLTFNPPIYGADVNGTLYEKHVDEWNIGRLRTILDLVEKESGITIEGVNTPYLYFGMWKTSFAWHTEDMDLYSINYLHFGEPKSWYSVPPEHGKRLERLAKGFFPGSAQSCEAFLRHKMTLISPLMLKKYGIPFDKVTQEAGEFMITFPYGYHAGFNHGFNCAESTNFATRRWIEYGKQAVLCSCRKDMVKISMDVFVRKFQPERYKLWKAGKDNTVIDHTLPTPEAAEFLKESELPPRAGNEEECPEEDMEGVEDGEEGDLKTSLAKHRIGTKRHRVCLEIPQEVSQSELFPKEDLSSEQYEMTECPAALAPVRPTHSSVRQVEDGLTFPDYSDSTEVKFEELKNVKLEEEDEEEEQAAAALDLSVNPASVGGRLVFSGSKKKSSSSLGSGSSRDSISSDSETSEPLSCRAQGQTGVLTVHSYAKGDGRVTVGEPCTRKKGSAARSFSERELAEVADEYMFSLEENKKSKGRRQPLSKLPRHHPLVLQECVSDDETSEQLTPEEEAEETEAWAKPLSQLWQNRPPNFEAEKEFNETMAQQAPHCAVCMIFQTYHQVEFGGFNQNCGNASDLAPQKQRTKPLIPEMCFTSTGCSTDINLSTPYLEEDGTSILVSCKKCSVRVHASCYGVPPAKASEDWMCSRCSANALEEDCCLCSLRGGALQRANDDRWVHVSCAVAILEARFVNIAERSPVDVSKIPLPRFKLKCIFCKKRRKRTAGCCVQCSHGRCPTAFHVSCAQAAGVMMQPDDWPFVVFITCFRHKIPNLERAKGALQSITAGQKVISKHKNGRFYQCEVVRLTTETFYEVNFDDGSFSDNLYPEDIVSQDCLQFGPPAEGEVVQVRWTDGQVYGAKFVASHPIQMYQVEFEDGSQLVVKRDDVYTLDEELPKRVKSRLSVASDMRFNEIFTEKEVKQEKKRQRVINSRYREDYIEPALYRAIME

[4] = biological target: T2, Lysine-specific demethylase 4A; test: Inhibition of KDM4A (unknown origin) expressed in Escherichia coli using biotinylated peptide as substrate pretreated for 15 mins followed by substrate addition by Alphascreen assay
[5] = biological target: T2, Lysine-specific demethylase 4A; test: Inhibition of full length FLAG-tagged KDM4A (unknown origin) expressed in human HeLa cells assessed as increase in H3K9me3 levels after 24 hrs by DAPI staining based immunofluorescence assay; type: cell-based
[6] = Drug localization in lysosomes of human MCF7 cells at 10 uM after 3 hrs by Lysotracker red DND-99 staining based confocal microscopic analysis; type: ADME, subcellular, Lysosome; settings: mcf7, 3 h

| Compound | Drug uptake [1] | IC50 [2] [nM] | Kd [3] [nM] | IC50 [4] [nM] | EC50 ([5]; hela) [nM] | Drug uptake [6] | EC50 [5] [nM] |
| --- | --- | --- | --- | --- | --- | --- | --- |
| CC[C@H](C)[C@@H]1NC(=O)[C@H](CCCNC(=N)N)NC(=O)[C@@H]2CCCN2C(=O)[C@@H](Cc2ccc(O)cc2)NC(=O)CSC[C@@H](C(N)=O)NC(=O)[C@H](Cc2c[nH]c3ccccc23)NC(=O)[C@H](CCCNC(=N)N)NC(=O)[C@H]([C@@H](C)CC)NC(=O)[C@@H](C)NC(=O)[C@H](CO)NC(=O)[C@H](CCCNC(=N)N)NC(=O)[C@H](CCCNC(=N)N)NC1=O | 97.1% | 173 | 14 | 208 | > 50000 | – | – |
| N=C(N)NCCC[C@@H]1NC(=O)CNC(=O)[C@H](Cc2ccc(O)cc2)NC(=O)CSC[C@@H](C(N)=O)NC(=O)[C@H](CCCNC(=N)N)NC(=O)[C@H](CCCNC(=N)N)NC(=O)[C@H](CCCNC(=N)N)NC(=O)[C@H](CCC(N)=O)NC(=O)[C@H](CCCNC(=N)N)NC(=O)[C@H](CCCCN)NC(=O)[C@H](CCCCN)NC(=O)[C@H](CCCCN)NC1=O ({CH2CO}-YGRKKKRQRRRC-NH2; thioether N-12) | Active | – | – | – | – | Active | – |
| CC[C@H](C)[C@@H]1NC(=O)[C@H](CC(C)C)NC(=O)[C@H](Cc2ccc(O)cc2)NC(=O)CSC[C@@H](C(N)=O)NC(=O)[C@H](Cc2c[nH]c3ccccc23)NC(=O)[C@H](C(C)C)NC(=O)[C@H](CC(C)C)NC(=O)CNC(=O)[C@H](CO)NC(=O)[C@H](CCCNC(=N)N)NC(=O)[C@H](CCCNC(=N)N)NC(=O)[C@H](C(C)C)NC1=O ({CH2CO}-YLIVRRSGLVWC-NH2; thioether N-12) | 3.4% | 151 | 173 | 81 | – | – | – |
| CC[C@H](C)[C@@H]1NC(=O)[C@H](CC(C)C)NC(=O)CNC(=O)[C@H](CO)NC(=O)[C@H](CCCNC(=N)N)NC(=O)[C@H](C(C)C)NC(=O)[C@H](C(C)C)NC(=O)[C@H](CCCCN)NC(=O)[C@@H]2CCCN2C(=O)[C@H](Cc2ccc(O)cc2)NC(=O)CSC[C@@H](C(N)=O)NC(=O)[C@H](Cc2c[nH]c3ccccc23)NC1=O ({CH2CO}-YPKVVRSGLIWC-NH2; thioether N-12) | 1.7% | 154 | 49 | 82 | – | – | – |
| CC[C@H](C)[C@@H]1NC(=O)CNC(=O)[C@H](CO)NC(=O)[C@H](CCCNC(=N)N)NC(=O)[C@H](CCCNC(=N)N)NC(=O)[C@H]([C@@H](C)CC)NC(=O)[C@H](CCCNC(=N)N)NC(=O)[C@@H]2CCCN2C(=O)[C@H](Cc2ccc(O)cc2)NC(=O)CSC[C@@H](C(N)=O)N(C)C(=O)[C@H](Cc2c[nH]c3ccccc23)NC(=O)[C@H](CCCNC(=N)N)NC1=O ({CH2CO}-YPRIRRSGIRW[NMeC]-NH2; thioether N-12) | 28.2% | 164 | 9 | 373 | – | – | > 50000 |

More lines, now with the values ahead:

| Drug uptake [1] | IC50 [2] [nM] | Kd [3] [nM] | IC50 [4] [nM] | EC50 ([5]; hela) [nM] | Drug uptake [6] | EC50 [5] [nM] | Compound |
| --- | --- | --- | --- | --- | --- | --- | --- |
| 2.9% | 22 | 3.7 | 43 | – | – | – | CC[C@H](C)[C@@H]1NC(=O)[C@H](Cc2c[nH]c3ccccc23)NC(=O)CNC(=O)[C@H](CO)NC(=O)[C@H](CCCNC(=N)N)NC(=O)[C@H](C(C)C)NC(=O)[C@H](C(C)C)NC(=O)[C@H](CCCNC(=N)N)NC(=O)[C@H]([C@@H](C)CC)NC(=O)[C@@H](Cc2ccc(O)cc2)NC(=O)CSC[C@@H](C(N)=O)NC(=O)[C@H](Cc2c[nH]c3ccccc23)NC1=O |
| 92.7% | 38 | 3.1 | 15 | > 50000 | – | – | CC[C@H](C)[C@@H]1NC(=O)[C@H](CCCNC(=N)N)NC(=O)[C@H]([C@@H](C)CC)NC(=O)[C@@H](Cc2ccc(O)cc2)NC(=O)CSC[C@@H](C(N)=O)NC(=O)[C@H](Cc2c[nH]c3ccccc23)NC(=O)[C@H](CC(C)C)NC(=O)[C@H](Cc2c[nH]c3ccccc23)NC(=O)[C@@H](C)NC(=O)[C@H](CO)NC(=O)[C@H](CCCNC(=N)N)NC(=O)[C@H](CCCNC(=N)N)NC1=O |
| 18% | 53 | 8.3 | 34 | – | – | > 50000 | CC[C@H](C)[C@@H]1NC(=O)[C@H](CCCNC(=N)N)NC(=O)[C@H]([C@@H](C)CC)NC(=O)[C@H](Cc2ccc(O)cc2)NC(=O)CSC[C@@H](C(N)=O)N(C)C(=O)[C@H](Cc2c[nH]c3ccccc23)NC(=O)[C@H](CC(C)C)NC(=O)[C@H](Cc2c[nH]c3ccccc23)NC(=O)CNC(=O)[C@H](CO)NC(=O)[C@H](CCCNC(=N)N)NC(=O)[C@H](CCCNC(=N)N)NC1=O ({CH2CO}-YIRIRRSGWLW[NMeC]-NH2; thioether N-12) |
| 12.1% | 23 | 16 | 31 | – | – | – | CC[C@H](C)[C@@H]1NC(=O)[C@H](CCCNC(=N)N)NC(=O)[C@H]([C@@H](C)CC)NC(=O)[C@H](Cc2ccc(O)cc2)NC(=O)CSC[C@@H](C(N)=O)NC(=O)[C@H](Cc2c[nH]c3ccccc23)NC(=O)[C@H](C(C)C)NC(=O)[C@H](Cc2c[nH]c3ccccc23)NC(=O)CNC(=O)[C@H](CO)NC(=O)[C@H](CCCNC(=N)N)NC(=O)[C@H](CO)NC1=O ({CH2CO}-YIRISRSGWVWC-NH2; thioether N-12) |
| 0.8% | 55 | 21 | 41 | – | – | – | CC[C@H](C)[C@@H]1NC(=O)[C@H](Cc2c[nH]c3ccccc23)NC(=O)CNC(=O)[C@H](CO)NC(=O)[C@H](CCCNC(=N)N)NC(=O)[C@H](CCCCN)NC(=O)[C@H]([C@@H](C)CC)NC(=O)[C@H](CO)NC(=O)[C@@H]2CCCN2C(=O)[C@H](Cc2ccc(O)cc2)NC(=O)CSC[C@@H](C(N)=O)NC(=O)[C@H](Cc2c[nH]c3ccccc23)NC1=O ({CH2CO}-YPSIKRSGWIWC-NH2; thioether N-12) |
| 55.6% | 12 | 14 | 11 | – | – | > 50000 | CC[C@H](C)[C@@H]1NC(=O)[C@H](CCCNC(=N)N)NC(=O)[C@H]([C@@H](C)CC)N(C)C(=O)[C@H](Cc2ccc(O)cc2)NC(=O)CSC[C@@H](C(N)=O)NC(=O)[C@H](Cc2c[nH]c3ccccc23)NC(=O)[C@H](CC(C)C)NC(=O)[C@H](Cc2c[nH]c3ccccc23)NC(=O)CNC(=O)[C@H](CO)NC(=O)[C@H](CCCNC(=N)N)NC(=O)[C@H](CCCNC(=N)N)NC1=O ({CH2CO}-Y[NMeI]RIRRSGWLWC-NH2; thioether N-12) |
